Target: T1, hematopoietic progenitor kinase 1 (HPK1) (Homo sapiens, UniProt Q92918)
T1 construct: gene MAP4K1
Assay: radiometric [γ-33P]-ATP kinase assay (Eurofins KinaseProfiler), recombinant human HPK1, MBP substrate
Format: biochemical

T1 sequence (Q92918 whole entry): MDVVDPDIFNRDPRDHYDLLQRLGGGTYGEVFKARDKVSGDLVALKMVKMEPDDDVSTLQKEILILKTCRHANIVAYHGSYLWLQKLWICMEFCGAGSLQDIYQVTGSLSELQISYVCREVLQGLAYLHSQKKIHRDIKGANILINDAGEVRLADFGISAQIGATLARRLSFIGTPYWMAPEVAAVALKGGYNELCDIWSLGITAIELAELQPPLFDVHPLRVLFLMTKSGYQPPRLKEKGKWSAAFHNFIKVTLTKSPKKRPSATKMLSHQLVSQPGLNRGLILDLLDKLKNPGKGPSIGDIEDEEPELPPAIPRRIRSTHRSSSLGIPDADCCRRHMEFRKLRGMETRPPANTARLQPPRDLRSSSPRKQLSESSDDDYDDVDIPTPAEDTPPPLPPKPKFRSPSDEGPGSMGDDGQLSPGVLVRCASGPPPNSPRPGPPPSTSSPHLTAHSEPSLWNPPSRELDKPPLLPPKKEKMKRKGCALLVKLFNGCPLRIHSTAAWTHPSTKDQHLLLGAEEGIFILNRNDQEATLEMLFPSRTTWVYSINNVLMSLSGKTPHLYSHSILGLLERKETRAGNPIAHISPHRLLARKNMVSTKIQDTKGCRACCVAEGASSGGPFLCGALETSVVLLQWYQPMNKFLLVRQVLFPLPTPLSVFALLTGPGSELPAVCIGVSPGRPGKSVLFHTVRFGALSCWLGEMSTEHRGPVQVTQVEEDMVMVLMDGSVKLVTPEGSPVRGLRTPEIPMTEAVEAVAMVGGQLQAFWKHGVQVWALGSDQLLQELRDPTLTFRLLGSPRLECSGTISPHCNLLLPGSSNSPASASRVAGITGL

IC50: 20 nM
SMILES: CC(C)S(=O)(=O)c1ccccc1Nc1nc(Nc2ccc3c(c2)C(C)(C)OC3=O)ncc1Cl [KHK-6]

— article PMC11207149, “Novel hematopoietic progenitor kinase 1 inhibitor KHK-6 enhances T-cell activation” (PLOS ONE, 2024)
